From ChEMBL document CHEMBL1130486, “Novel 5-amino-6-methylquinolone antibacterials: A new class of non-6-fluoroquinolones” (1997)
In brackets after ≈: the same amount, converted by molar mass.

Key:
Pseudomonas aeruginosa [1] = test: In vitro minimum inhibitory concentration was determined for antibacterial activity against Pseudomonas aeruginosa 1012E strain.; assay type: functional
[2] = test system: Staphylococcus epidermidis; test: In vitro minimum inhibitory concentration was determined for antibacterial activity against Staphylococcus epidermis 887E strain.; assay type: functional
Escherichia coli [3] = test: In vitro minimum inhibitory concentration was determined for antibacterial activity against Escherichia coli 10536 strain; assay type: functional
Klebsiella aerogenes [4] = test: In vitro minimum inhibitory concentration was determined for antibacterial activity against Klebsiella aerogenes 1076E strain.; assay type: functional
Salmonella typhimurium = test: In vitro minimum inhibitory concentration was determined for antibacterial activity against Salmonella Typhimurium 14028 strain.; assay type: functional, Salmonella enterica subsp. enterica serovar Typhimurium; conditions: Salmonella enterica
Escherichia coli [5] = test: In vitro minimum inhibitory concentration was determined for antibacterial activity against Escherichia coli TEM5 3739E strain.; assay type: functional
[6] = test system: Staphylococcus epidermidis; test: In vitro minimum inhibitory concentration was determined for antibacterial activity against Staphylococcus epidermis 178 strain.; assay type: functional
Enterobacter cloacae [7] = test: In vitro minimum inhibitory concentration was determined for antibacterial activity against Enterobacter cloacae p99 strain.; assay type: functional
Escherichia coli [8] = test: In vitro minimum inhibitory concentration was determined for antibacterial activity against Escherichia coli 851E strain.; assay type: functional
Staphylococcus aureus [9] = test: In vitro minimum inhibitory concentration was determined for antibacterial activity against Staphylococcus aureus giorgio strain.; assay type: functional
Bacillus subtilis = test: In vitro minimum inhibitory concentration was determined for antibacterial activity against Bacillus subtilis ATCC 6633 strain.; assay type: functional
Enterobacter cloacae [10] = test: In vitro minimum inhibitory concentration was determined for antibacterial activity against Enterobacter cloacae 1194E strain.; assay type: functional
Staphylococcus aureus [11] = test: In vitro minimum inhibitory concentration was determined for antibacterial activity against Staphylococcus aureus 241 strain.; assay type: functional
Staphylococcus aureus [12] = test: In vitro minimum inhibitory concentration was determined for antibacterial activity against Staphylococcus aureus 6538p strain.; assay type: functional
Staphylococcus aureus [13] = test: In vitro minimum inhibitory concentration was determined for antibacterial activity against Staphylococcus aureus 77 strain.; assay type: functional
Escherichia coli [14] = test: In vitro minimum inhibitory concentration was determined for antibacterial activity against Escherichia coli TEM9 2639E strain.; assay type: functional
Citrobacter koseri = test: In vitro minimum inhibitory concentration was determined for antibacterial activity against Citrobacter diversus 2046E strain.; assay type: functional
Escherichia coli [15] = test: In vitro minimum inhibitory concentration was determined for antibacterial activity against Escherichia coli 3190Y strain.; assay type: functional
[16] = test system: Acinetobacter calcoaceticus; test: In vitro minimum inhibitory concentration was determined for antibacterial activity against Acinetobacter calcoaceticus 15473 strain.; assay type: functional
Micrococcus luteus = test: In vitro minimum inhibitory concentration was determined for antibacterial activity against Micrococcus luteus ATCC 9341 strain.; assay type: functional
Pseudomonas aeruginosa [17] = test: In vitro minimum inhibitory concentration was determined for antibacterial activity against Pseudomonas aeruginosa 10145 strain.; assay type: functional
Klebsiella aerogenes [18] = test: In vitro minimum inhibitory concentration was determined for antibacterial activity against Klebsiella aerogenes 1082E strain.; assay type: functional
Enterococcus faecalis = test: In vitro minimum inhibitory concentration was determined for antibacterial activity against […] 29212 strain.; assay type: functional

| Compound | MIC (Pseudomonas aeruginosa [1]) [µg/mL] | MIC (Salmonella typhimurium) [µg/mL] | MIC (Escherichia coli [5]) [µg/mL] | MIC (Enterobacter cloacae [7]) [µg/mL] | MIC (Escherichia coli [8]) [µg/mL] | MIC (Bacillus subtilis) [µg/mL] | MIC (Enterobacter cloacae [10]) [µg/mL] | MIC [2] [µg/mL] | MIC (Escherichia coli [3]) [µg/mL] | MIC (Klebsiella aerogenes [4]) [µg/mL] | MIC [6] [µg/mL] | MIC (Staphylococcus aureus [9]) [µg/mL] | MIC (Staphylococcus aureus [11]) [µg/mL] | MIC (Staphylococcus aureus [12]) [µg/mL] | MIC (Staphylococcus aureus [13]) [µg/mL] | MIC (Citrobacter koseri) [µg/mL] | MIC [16] [µg/mL] | MIC (Micrococcus luteus) [µg/mL] | MIC (Klebsiella aerogenes [18]) [µg/mL] | MIC (Enterococcus faecalis) [µg/mL] | further results |
| --- | --- | --- | --- | --- | --- | --- | --- | --- | --- | --- | --- | --- | --- | --- | --- | --- | --- | --- | --- | --- | --- |
| Cc1c(N2CCNCC2)c(F)c2c(c1N)c(=O)c(C(=O)O)cn2C1CC1 | 1 (≈ 2.77 µM) | 0.063 (≈ 0.175 µM) | 0.5 (≈ 1.39 µM) | ≤ 0.008 | 0.031 (≈ 0.086 µM) | 0.031 (≈ 0.086 µM) | 0.063 (≈ 0.175 µM) | 0.13 (≈ 0.361 µM) | ≤ 0.008 | 0.25 (≈ 0.694 µM) | 16 (≈ 44.4 µM) | 0.25 (≈ 0.694 µM) | 16 (≈ 44.4 µM) | 0.25 (≈ 0.694 µM) | 0.5 (≈ 1.39 µM) | 0.063 (≈ 0.175 µM) | 0.13 (≈ 0.361 µM) | 4 (≈ 11.1 µM) | 0.031 (≈ 0.086 µM) | 4 (≈ 11.1 µM) | MIC (Escherichia coli [14]): 0.031 µg/mL (≈ 0.086 µM); MIC (Escherichia coli [15]): ≤ 0.008 µg/mL; MIC (Pseudomonas aeruginosa [17]): 2 µg/mL (≈ 5.55 µM) |
| O=C(O)c1cn(C2CC2)c2cc(N3CCNCC3)c(F)cc2c1=O [CIPROFLOXACIN] | 0.13 (≈ 0.392 µM) |  | 0.13 (≈ 0.392 µM) |  |  |  |  | 0.13 (≈ 0.392 µM) | ≤ 0.008 | 0.13 (≈ 0.392 µM) | 128 (≈ 386 µM) | 0.25 (≈ 0.754 µM) | 128 (≈ 386 µM) | 0.13 (≈ 0.392 µM) | 0.25 (≈ 0.754 µM) | 0.016 (≈ 0.0483 µM) | 0.25 (≈ 0.754 µM) | 4 (≈ 12.1 µM) | ≤ 0.008 | 0.5 (≈ 1.51 µM) | MIC (Escherichia coli [15]): ≤ 0.008 µg/mL |
| CC1COc2c(N3CCN(C)CC3)c(F)cc3c(=O)c(C(=O)O)cn1c23 (configuration not stated) [OFLOXACIN] |  | 0.13 (≈ 0.36 µM) |  | 0.031 (≈ 0.0858 µM) | 0.063 (≈ 0.174 µM) | 0.063 (≈ 0.174 µM) | 0.13 (≈ 0.36 µM) | 0.25 (≈ 0.692 µM) | 0.031 (≈ 0.0858 µM) | 0.25 (≈ 0.692 µM) | 32 (≈ 88.6 µM) | 0.5 (≈ 1.38 µM) | 64 (≈ 177 µM) | 0.5 (≈ 1.38 µM) | 0.25 (≈ 0.692 µM) | 0.13 (≈ 0.36 µM) | 0.25 (≈ 0.692 µM) | 2 (≈ 5.53 µM) | 0.13 (≈ 0.36 µM) | 2 (≈ 5.53 µM) | MIC (Escherichia coli [14]): 0.063 µg/mL (≈ 0.174 µM) |

Further lines, with some results ahead:

| MIC (Pseudomonas aeruginosa [1]) [µg/mL] | MIC (Salmonella typhimurium) [µg/mL] | MIC (Escherichia coli [5]) [µg/mL] | MIC (Enterobacter cloacae [7]) [µg/mL] | MIC (Escherichia coli [8]) [µg/mL] | MIC (Bacillus subtilis) [µg/mL] | MIC (Enterobacter cloacae [10]) [µg/mL] | Compound | MIC [2] [µg/mL] | MIC (Escherichia coli [3]) [µg/mL] | MIC (Klebsiella aerogenes [4]) [µg/mL] | MIC [6] [µg/mL] | MIC (Staphylococcus aureus [9]) [µg/mL] | MIC (Staphylococcus aureus [11]) [µg/mL] | MIC (Staphylococcus aureus [12]) [µg/mL] | MIC (Staphylococcus aureus [13]) [µg/mL] | MIC (Citrobacter koseri) [µg/mL] | MIC [16] [µg/mL] | MIC (Micrococcus luteus) [µg/mL] | MIC (Klebsiella aerogenes [18]) [µg/mL] | MIC (Enterococcus faecalis) [µg/mL] | further results |
| --- | --- | --- | --- | --- | --- | --- | --- | --- | --- | --- | --- | --- | --- | --- | --- | --- | --- | --- | --- | --- | --- |
| 2 (≈ 5.34 µM) | 0.13 (≈ 0.347 µM) | 0.5 (≈ 1.34 µM) | 0.016 (≈ 0.0427 µM) | 0.063 (≈ 0.168 µM) | 0.063 (≈ 0.168 µM) | 0.13 (≈ 0.347 µM) | Cc1c(N2CCNC(C)C2)c(F)c2c(c1N)c(=O)c(C(=O)O)cn2C1CC1 (configuration not stated) | 0.25 (≈ 0.668 µM) | 0.063 (≈ 0.168 µM) | 0.25 (≈ 0.668 µM) | 16 (≈ 42.7 µM) | 0.25 (≈ 0.668 µM) | 16 (≈ 42.7 µM) | 0.5 (≈ 1.34 µM) | 0.5 (≈ 1.34 µM) | 0.063 (≈ 0.168 µM) | 0.13 (≈ 0.347 µM) | 8 (≈ 21.4 µM) | 0.13 (≈ 0.347 µM) | 2 (≈ 5.34 µM) | MIC (Escherichia coli [14]): 0.063 µg/mL (≈ 0.168 µM); MIC (Escherichia coli [15]): 0.016 µg/mL (≈ 0.0427 µM); MIC (Pseudomonas aeruginosa [17]): 2 µg/mL (≈ 5.34 µM) |
| 1 (≈ 2.77 µM) | 0.25 (≈ 0.694 µM) | 1 (≈ 2.77 µM) | 0.031 (≈ 0.086 µM) | 0.13 (≈ 0.361 µM) | 0.063 (≈ 0.175 µM) | 0.25 (≈ 0.694 µM) | Cc1c(N2CCC(N)C2)c(F)c2c(c1N)c(=O)c(C(=O)O)cn2C1CC1 (configuration not stated) | 0.25 (≈ 0.694 µM) | 0.031 (≈ 0.086 µM) | 0.5 (≈ 1.39 µM) | 16 (≈ 44.4 µM) | 0.25 (≈ 0.694 µM) | 8 (≈ 22.2 µM) | 0.25 (≈ 0.694 µM) | 0.5 (≈ 1.39 µM) | 0.13 (≈ 0.361 µM) | 0.5 (≈ 1.39 µM) | 8 (≈ 22.2 µM) | 0.13 (≈ 0.361 µM) | 8 (≈ 22.2 µM) | MIC (Escherichia coli [14]): 0.13 µg/mL (≈ 0.361 µM); MIC (Escherichia coli [15]): 0.031 µg/mL (≈ 0.086 µM); MIC (Pseudomonas aeruginosa [17]): 4 µg/mL (≈ 11.1 µM) |
| 1 (≈ 2.67 µM) | 0.13 (≈ 0.347 µM) | 0.5 (≈ 1.34 µM) | 0.031 (≈ 0.0828 µM) | 0.063 (≈ 0.168 µM) | 0.016 (≈ 0.0427 µM) | 0.031 (≈ 0.0828 µM) | Cc1c(N2CCC(CN)C2)c(F)c2c(c1N)c(=O)c(C(=O)O)cn2C1CC1 (configuration not stated) | 0.031 (≈ 0.0828 µM) | 0.031 (≈ 0.0828 µM) | 0.25 (≈ 0.668 µM) | 16 (≈ 42.7 µM) | 0.031 (≈ 0.0828 µM) | 8 (≈ 21.4 µM) | 0.031 (≈ 0.0828 µM) | 0.063 (≈ 0.168 µM) | 0.13 (≈ 0.347 µM) | 0.13 (≈ 0.347 µM) | 4 (≈ 10.7 µM) | 0.13 (≈ 0.347 µM) | 0.25 (≈ 0.668 µM) | MIC (Escherichia coli [14]): 0.13 µg/mL (≈ 0.347 µM); MIC (Escherichia coli [15]): 0.016 µg/mL (≈ 0.0427 µM); MIC (Pseudomonas aeruginosa [17]): 2 µg/mL (≈ 5.34 µM) |
